Assay type in all cases: cell-based, human
Experiment [1] deals with AsPC-1 cells (KRAS G12D mutation). Nature of the experiment: 3D cell proliferation assay (CellTiter Glo-3D), AsPC-1. Particulars: medium with 2% FBS, read-out: AsPC-1 AP IC50. The text has this:
MIA PaCa-2 cells were purchased from ATCC, Cat. No. CRL-1420; AsPC-1 cells were purchased from ATCC, Cat. No. CRL-1682; NCI-H441 cells were purchased from ATCC, Cat. No. HTB-174: NCI-H1975 cells were purchased from ATCC. Cat. No. CRL-5908; DMEM medium was purchased from Gibco, Cat. No. 11995-065: RPMI-1040 medium was purchased from Gibco. Cat. No. H 18754093; FBS was purchased from Gibco, Cat. No. 10099-141C. penicillin, streptomycin double-antibiotic solution (PS) was purchased from Gibco, Cat. No. 15140-122; Horse serum was purchased from Gibco. Cat. No. 16050130: trypsin (containing EDTA) was purchased from Gibco, Cat. No. 25200-072; DMSO was purchased from VWRAMRESCO, Cat. No. 0231-500ML; 384-well cell culture plates were purchased from Corning, Cat. No. 3830; white-bottomed, opaque 384-well assay plates were purchased from Corning, Cat. No. 3570. CellTiter Glo-3D) kit was purchased from Promega. Cat. No. G9683; cell counter was purchased from CHEMOMETEC, model: NC-200: microplate reader was purchased from PerkinElmer, model: EnVision.
MIA PaCa-2, a human pancreatic cancer cell strain endogenously containing a KRAS^G12C mutation, was cultured in a complete medium containing DMEM+10% FBS+2.5% Horse serum+1% PS. AsPC-1, a human pancreatic cancer cell strain endogenously containing a […] mutation, was cultured in a complete medium containing RPMI-1640+10% FBS+1% PS. NCI-H441 cells, a human lung cancer cell strain endogenously containing a […] mutation, were cultured in a complete medium containing RPMI-1640+10% FBS+1% PS. NCI-H1975, a KRAS wild-type human lung cancer cell strain whose cell proliferation depends on KRAS activity, was cultured in a complete medium containing RPMI-1640+10% FBS+1% PS.
The cells were digested with trypsin (containing EDTA), collected in their respective low-serum complete media containing 2% FBS (for MIA Paca-2 cell culture: DMEM+2% FBS+0.5% Horse serum+1% PS), and counted. After the cell density was adjusted as required, 200 MIA PaCa-2 cells, 800 AsPC-1 cells, 800 NCI-H441 cells, or 400 NCI-H1975 cells per well were seeded into a 384-well cell culture plate, with the volume of the medium in each well being 45 μL. The cell culture plate was incubated in an incubator at 37° C. with 5% CO2, overnight. A series of 3.16-fold gradient dilutions of a 1000× compound stock solution were prepared with DMSO, and then diluted 100-fold with the complete medium containing 2% FBS described above to give 10- compound stock solutions. On the day after cell seeding, 5 μL of the 10- compound stock solution was added to each cell culture well. As a result, the final concentration of the compound in the cell culture well became 1×, and the DMSO content in the well was 0.1%. In addition to the compound-treated wells described above, cell-containing DMSO control wells (with 5 μL of the complete medium containing 1% DMSO added to each well) and cell-free medium control wells (containing 50 μL of the complete medium with 2% FBS) were also set. The culture plate was incubated in an incubator at 37° C. with 5% CO2 for another 5 days, and then 30 μL of CellTiter-Glo working solution was added to each well. The mixture was well mixed, incubated for 30 min, left to stand at room temperature for 30 min, and then transferred to a white-bottomed, opaque 384-well assay plate at 40 μL/well. The chemiluminescence values (RLU) were measured using a microplate reader, and the cell proliferation inhibition rate for each well was calculated: IR (%)=(RLUDMSO—RLUcompound)/(RLUDMSO−RLUblank)×100%, where RLUDMSO is the average RLU signal value from the DMSO control well samples, RLUblank is the average RLU signal value from the medium control well samples, and RLUcompound is the RLU signal value from the compound-treated well samples. […]

For another experiment, the system named is NCI-H441 cells. Nature of the experiment: 3D cell proliferation assay (CellTiter Glo-3D), NCI-H441. To be noted: medium with 2% FBS, read-out: H441 AP IC50. Put shortly:
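Cells were seeded at 800 per well in RPMI-1640 containing 2% FBS and left overnight. Compounds in 3.16-fold dilution series were then added at 0.1% DMSO and incubated 5 days at 37 °C. Viability was read by CellTiter-Glo 3D luminescence and IC50 values fitted by four-parameter regression.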

The subject of experiment [2] is p-ERK in NCI-H441 cells (KRAS G12V mutation). Nature of the experiment: Cell p-ERK assay (HTRF) in NCI-H441 cells. Particulars: NCI-H441 cells, 3 h compound incubation, HTRF p-ERK T202/Y204, read-out: H441 p-ERK IC50. In short, it runs like this: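 AsPC-1 (10000/well) or NCI-H441 (20000/well) cells were seeded overnight, then treated 3 h at 37° C. with 3.16-fold compound dilutions (0.1% DMSO final). Lysates were probed 4 h for phospho-ERK T202/Y204 by HTRF; inhibition versus DMSO and blank wells gave IC50 from four-parameter fits.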
On the technique in general: In TR-FRET formats the signal depends on donor and acceptor labels being close together.

Setting [3] is: 3D cell proliferation (CellTiter Glo-3D).
[4] abbreviates: Homo sapiens, ASPC1, 3D cell proliferation (CellTiter Glo-3D).
[5] abbreviates: Homo sapiens, NCI-H441, 3D cell proliferation (CellTiter Glo-3D).

Each structure is given as a SMILES string. pIC50: −log10 of the molar value. Like-named read-outs stand apart in the source and are kept apart here.

On to `CCn1c(-c2cc(C(C)N3CCN(C)CC3)cnc2[C@H](C)OC)c2c3cc(ccc31)-c1csc(n1)C[C@H](NC(=O)[C@H]1[C@H](C)[C@@H]1C)C(=O)N1CCC[C@H](N1)C(=O)OCC1(CC1)C2` (stereo partly drawn) [Compound Z456], for which the pIC50 in experiment [1] (setting [3]) was 6.82; in the experiment with NCI-H441 cells (setting [3]), 6.90; in experiment [2], 7.21.
On to `CCn1c(-c2cc(C#CCN3CCCOCC3)cnc2[C@H](C)OC)c2c3cc(ccc31)-c1csc(n1)C[C@H](Nc1nnc3cc(C)ccn13)C(=O)N1CCC[C@H](N1)C(=O)OCC(C)(C)C2` [Compound Z955, (6^3S,4S2)-1^2-(5-(3-(1,4-oxazepan-4-yl)prop-1-yn-1-yl)-2-((S)-1-methoxyethyl)pyridin-3-yl)-1^1-ethyl-10,10-dimethyl-4-((7-methyl-[1,2,4]triazolo[4,3-a]pyridin-3-yl)amino)-6^1,6^2,6^3,6^4,6^5,6^6-hexahydro-1^1H-8-oxa-2(4,2)-thiazola-1(5,3)-indola-6(1,3)-pyridazinacycloundecaphane-5J7-dione], for which the pIC50 in experiment [1] (setting [4]) was 8.32; in the experiment on NCI-H441 cells (setting [5]), 8.53; in experiment [2] (Homo sapiens, NCI-H441, 3 h) it was 8.59.
With `CCn1c(-c2cc(C#CCN3CCC(F)(F)CC3)cnc2[C@H](C)OC)c2c3cc(ccc31)-c1csc(n1)C[C@H](Nc1nnc3cc(C)ccn13)C(=O)N1CCC[C@H](N1)C(=O)OCC(C)(C)C2` (atropisomer, axis not shown; (Ra)) [Compound Z958, (6^3S,4S,Z)—(Ra)-1-(5-(3-(4,4-difluoropiperidin-1-yl)prop-1-yn-1-yl)-2-((S)-1-methoxyethyl)pyridin-3-yl)-1^1-ethyl-10,10-dimethyl-4-((7-methyl-[1,2,4]triazolo[4,3-a]pyridin-3-yl)amino)-6^1,6^2,6^3,6^4,6^5,6^6-hexahydro-1^1H-8-oxa-2(4,2)-thiazola-1(5,3)-indola-6(1,3)-pyridazinacycloundecaphane-5,7-dione], the pIC50 in experiment [1] (setting [4]) is 8.21; in the experiment with NCI-H441 cells (setting [5]) it was 8.31; in experiment [2] (Homo sapiens, NCI-H441, 3 h), 8.24.
Regarding `CCn1c(-c2cc(C#CCN3CCC(=O)N(C)CC3)cnc2[C@H](C)OC)c2c3cc(ccc31)-c1csc(n1)C[C@H](Nc1nnc3cc(C)ccn13)C(=O)N1CCC[C@H](N1)C(=O)OCC(C)(C)C2` (atropisomer, axis not shown; (Ra)) [Compound Z957, (6^3S,4S2)-1-(5-(3-(4-methyl-1,4-diazepan-5-one-1-yl)prop-1-yn-1-yl)-(Ra)-2-((S)-1-methoxyethyl)pyridin-3-yl)-1^1-ethyl-10,10-dimethyl-4-((7-methyl-[,2,4]triazolo[4,3-a]pyridin-3-yl)amino)-6^1,6^2,6^3,6^4,6^5,6^6-hexahydro-1^1H-8-oxa-2(4,2)-thiazola-1(5,3)-indola-6(1,3)-pyridazinacycloundecaphane-5,7-dione], the results for the pIC50 (in experiment [1] (setting [3]); in the experiment with NCI-H441 cells (setting [3]); in experiment [2]) were 8.17, 8.61 and 8.58, respectively.
Regarding `CCn1c(-c2cccnc2[C@H](C)OC)c2c3cc(ccc31)-c1csc(n1)C[C@H](NC(=O)C(C)(C)F)C(=O)N1CCC[C@H](N1)C(=O)OCC(C)(C)C2` (single isomer, unassigned) [Compound Z1], the pIC50 in experiment [1] (setting [4]) is 6.25; with NCI-H441 cells (setting [5]), 6.35.
In the case of `CCn1c(-c2cc(C#CC34CCCN3CCC4)cnc2[C@H](C)OC)c2c3cc(ccc31)-c1csc(n1)C[C@H](NC(=O)[C@H]1[C@H](C)[C@@H]1C)C(=O)N1CCC[C@H](N1)C(=O)OCC(C)(C)C2` (atropisomer, axis not shown; (Ra)) [Compound Z794, (1r,2R,3S)—N-((6^3S,4S,Z)—(Ra)-1^2-ethyl-1^2-(2-((S)-1-methoxyethyl)-5-((tetrahydro-1H-pyrrolizin-7a(5H)-yl)ethynyl)pyridin-3-yl)-10,10-dimethyl-5,7-dioxo-6^1,6^2,6^3,6^4,6^5,6^6-hexahydro-1^1H-8-oxa-2(4,2)-thiazola-1(5,3)-indola-6(1,3)-pyridazinacycloundecaphane-4-yl)-2,3-dimethylcyclopropane-1-carboxamide], the pIC50 in experiment [1] (setting [4]) is 8.68; in the experiment on NCI-H441 cells (setting [5]), 9.18; in experiment [2] (Homo sapiens, NCI-H441, 3 h), 9.31.
`CCn1c(-c2cc(C#CCN3CCOC[C@@H](O)C3)cnc2[C@H](C)OC)c2c3cc(ccc31)-c1csc(n1)C[C@H](Nc1nnc3cc(C)ccn13)C(=O)N1CCC[C@H](N1)C(=O)OCC(C)(C)C2` (atropisomer, axis not shown; (Ra)) [Compound Z966, (6^3S,4S,Z)-1^1-ethyl-(Ra)-1^2-(5-(3-((S)-6-hydroxy-1,4-oxazepan-4-yl)prop-1-yn-1-yl)-2-((S)-1-methoxyethyl)pyridin-3-yl)-10,10-dimethyl-4-((7-methyl-[1,2,4]triazolo[4,3-a]pyridin-3-yl)amino)-6^1,6^2,6^3,6^4,6^5,6^6-hexahydro-1^1H-8-oxa-2(4,2)-thiazola-1(5,3)-indola-6(1,3)-pyridazinacycloundecaphane-5,7-dione]: the pIC50 in experiment [1] (setting [4]) was 8.03; in the experiment on NCI-H441 cells (setting [5]), 8.31.
Taken in the same sequence, the figures for `CO[C@@H](C)c1ncc(C#CCN2CCS(=O)(=O)CC2)cc1-c1c2c3cc(ccc3n1C(C)C)-c1csc(n1)C[C@H](Nc1nnc3cc(C)ccn13)C(=O)N1CCC[C@H](N1)C(=O)OCC(C)(C)C2` (atropisomer, axis not shown; (Ra)) [Compound Z913-1, (6^3S,4S,Z)—(Ra)-1^1-(5-(3-(1,1-dioxidothiomorpholino)prop-1-yn-1-yl)-2-((S)-1-methoxyethyl)pyridin-3-yl)-1′-isopropyl-10,10-dimethyl-4-((7-methyl-[1,2,4]triazolo[4,3-a]pyridin-3-yl)amino)-6^1,6^2,6^3,6^4,6^5,6^6-hexahydro-1^1H-8-oxa-2(4,2)-thiazola-1(5,3)-indola-6(1.3)-pyridazinacycloundecaphane-5,7-dione] were 8.05 and 8.38.

In general, pIC50 refers to the IC50 on a negative log10 scale, so that one unit is a factor of ten.

The values above are taken from patent US20260234165A1, “MACROCYCLIC COMPOUNDS, PREPARATION METHOD THEREFOR, AND USE THEREOF” (GENFLEET THERAPEUTICS (SHANGHAI) INC., priority 2004, published 2026).
